Results on eleven compounds are retold here after PMC9145483, “Substituted Purines as High-Affinity Histamine H3 Receptor Ligands” (Pharmaceuticals, 2022).

The target of one data set is T1, human histamine H3R (Homo sapiens, UniProt Q9Y5N1).
T1 construct: expressed in transfected cells; host or cells: HEK-293 cells, stably expressing; membrane preparations
Put plainly: Human histamine H3 radioligand displacement ([3H]Nα-methylhistamine). It counts as binding. For orientation: In a radioligand displacement assay an active substance lowers the binding of a labelled ligand.

In the next data set the test system is hepatoma HepG2 cell line. The experiment in a line: MTT cytotoxicity assay, HepG2. It is filed as cell-based. As to conditions: 48 h, 0.1 to 100 μM. The method, then: (§1) The potential general nephrotoxic, neurotoxic and hepatotoxic effects of selected H3R ligands 3d and 3h were investigated to determine their influence on the viability of normal HEK-293, neuroblastoma SH-SY5Y and hepatoma HepG2 cell lines by a colorimetric MTT reduction assay (Table 2).
(§2) Cultures of HEPG2 (ATCC-HB-8065 TM), HEK293 (ATCC CRL-1573 TM) and SHSY-5Y (ATCC CRL-2266 TM) cell lines were used as experimental models. Cells were maintained in a DMEM culture medium supplemented with 10% Foetal Bovine Serum (FBS), in an incubator at 37 °C and a humidified atmosphere with 5% CO2. Cells were seeded on culture plates, were allowed to grow for 24 h and then were treated with the synthesized compounds for 48 h with 100, 10, 1 and 0.1 µM concentrations. Negative cell death control, corresponding to untreated cells, and positive cell death control, corresponding to cells treated with 10% SDS, were maintained.
(§3) In a colorimetric MTT reduction assay, sterile 96-well culture plates were used. An amount of 2000–2500 cells per well were seeded. Upon completion of treatment, the culture medium was vacuum aspirated and washed with 1x PBS, and then 100 μL of 0.5 mg/mL MTT solution was added for a period of 4 h at 37 °C for formazan crystal formation. At the end of the 4 h, 100 μL of 10% SDS in HCl was added and kept overnight in an incubator at 37 °C to dissolve the formed crystals. The absorbance of each well was measured on the Synergy HTX microplate reader at 570 nm wavelength.
In general terms: Tetrazolium assays rely on reduction of a dye to a coloured formazan, in cell work by metabolically active cells.

Data set [1] is described as follows: MTT cytotoxicity assay, HepG2. It is filed as cell-based. As to conditions: human, HepG2 hepatoma cells, 0.1 to 100 μM. On the procedure: as §1, §2, §3
Data set [2] in a line: MTT cytotoxicity assay, HEK-293. It is filed as cell-based. As to conditions: human, HEK-293 cells, HEK-293, MTT, 0.1 to 100 μM. The method, then:
as §1, §2
(§4) In a colorimetric MTT reduction assay, sterile 96-well culture plates were used. An amount of 2000–2500 cells per well were seeded. Upon completion of treatment, the culture medium was vacuum aspirated and washed with 1x PBS, and then 100 μL of 0.5 mg/mL MTT solution was added for a period of 4 h at 37 °C for formazan crystal formation. […] The absorbance of each well was measured on the Synergy HTX microplate reader at 570 nm wavelength.

Another data set deals with HEK-293 cell line. The experiment in a line: MTT cytotoxicity assay, HEK-293. It counts as cell-based. As to conditions: HEK-293, MTT, 48 h, 0.1 to 100 μM. The method, then:
as §1, §2, §4

The nature of data set [3]: MTT cytotoxicity assay, SH-SY5Y. It counts as cell-based. Particulars: human, SH-SY5Y neuroblastoma cells, 0.1 to 100 μM. The method, then: as §1, §2, §4
The subject of data set [4] is neuroblastoma SH-SY5Y cell line. The experiment in a line: MTT cytotoxicity assay, SH-SY5Y. It is filed as cell-based. As to conditions: 48 h, 0.1 to 100 μM. The method, then:
as §1, §2, §4

Another data set has as its target H3R. More on the design: method as in PMID 30025902, PMID 31176569. As to conditions: H3R affinity of previous ligands; cited from earlier work.
The mark [5] stands for this setting: [3H]Nα-methylhistamine 2 nM, HEK-293 membranes stably expressing human H3R, mean [95% CI], at least three experiments in duplicate, read-out: Ki (nM) [95% CI nM].
Where [6] appears, read: restated in Table 3, read-out: Biological Activity Ki.

Molecules are shown by their SMILES. Like-named read-outs stand apart in the source and are kept apart here.

A word on the IC50: it is the concentration that inhibits the measured activity by half. As a reminder, the Kd is the concentration at which binding is half-saturated. Read a high Kd as weaker binding.

T1 sequence (Q9Y5N1 whole entry): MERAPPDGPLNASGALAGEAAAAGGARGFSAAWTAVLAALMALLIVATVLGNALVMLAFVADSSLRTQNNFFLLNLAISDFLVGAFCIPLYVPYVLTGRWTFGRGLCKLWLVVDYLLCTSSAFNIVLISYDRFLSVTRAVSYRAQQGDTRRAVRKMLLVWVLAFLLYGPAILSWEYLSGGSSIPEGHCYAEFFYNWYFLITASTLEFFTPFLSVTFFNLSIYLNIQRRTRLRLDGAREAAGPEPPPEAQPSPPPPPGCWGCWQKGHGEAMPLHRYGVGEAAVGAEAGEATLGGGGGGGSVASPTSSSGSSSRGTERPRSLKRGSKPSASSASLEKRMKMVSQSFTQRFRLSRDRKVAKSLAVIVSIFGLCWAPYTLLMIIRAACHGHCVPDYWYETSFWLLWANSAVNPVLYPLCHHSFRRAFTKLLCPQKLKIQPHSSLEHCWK
Protocol for human histamine H3R: Radioligand displacement assays at the human histamine H3R were performed, as published previously [28]. […] At least three independent experiments of each compound in duplicate were conducted with 11 concentrations. Obtained data was analyzed with GraphPad Prism 7 (San Diego, CA, USA) using non-linear least squares fit and the equation “one site competition” (representative Figures given in the SI). Ki values were calculated according to the Cheng–Prusoff equation [29] and are reported as means with a 95% confidence interval. Statistical analyses were performed on the -logKi values and were converted to mean Ki values and a 95% confidence interval.

Turning to `Fc1ccc(Cn2cnc3c(N4CCC(N5CCCCC5)CC4)ncnc32)cc1` [Compound 3a, 6-([1,4’-Bipiperidin]-1’-yl)-9-(4-fluorobenzyl)-9H-purine], the Ki on human histamine H3R (setting [5]) and at human histamine H3R (setting [6]) was 105 nM each time.

As to `Clc1ccc(Cn2cnc3c(N4CCC(N5CCCCC5)CC4)ncnc32)cc1` [Compound 3b, 6-([1,4’-Bipiperidin]-1’-yl)-9-(4-chlorobenzyl)-9H-purine], the Ki at human histamine H3R (setting [5]) and at human histamine H3R (setting [6]) was 39.4 nM each time.

In the case of `N#Cc1ccc(Cn2cnc3c(N4CCC(N5CCCCC5)CC4)ncnc32)cc1` [Compound 3c, 4-((6-([1,4’-Bipiperidin]-1’-yl)-9H-purin-9-yl)methyl)benzonitrile], the Ki at human histamine H3R (setting [5]) and at human histamine H3R (setting [6]) was 28.8 nM in each case.

With `Clc1cccc(Cl)c1Cn1cnc2c(N3CCC(N4CCCCC4)CC3)ncnc21` [Compound 3d, 6-([1,4’-Bipiperidin]-1’-yl)-9-(2,6-dichlorobenzyl)-9H-purine], the Ki at human histamine H3R (Table 3, read-out: Biological Activity −logKi (converted)) was 2.88 nM; at human histamine H3R (setting [5]) it was 2.91 nM. Further, the IC50 with hepatoma HepG2 cell line was 57.6 ± 12 µM. In addition, in data set [1], the IC50 at 48 h is over 30 µM.

As to `Fc1ccc(Cn2cnc3c(N4CCC(N5CCCCC5)CC4)nc(Cl)nc32)cc1` [Compound 3e, 6-([1,4’-Bipiperidin]-1’-yl)-2-chloro-9-(4-fluorobenzyl)-9H-purine], the Ki on human histamine H3R (setting [5]) was determined as 94.6 nM.

In the case of `Clc1ccc(Cn2cnc3c(N4CCC(N5CCCCC5)CC4)nc(Cl)nc32)cc1` [Compound 3f, 6-([1,4’-Bipiperidin]-1’-yl)-2-chloro-9-(4-chlorobenzyl)-9H-purine], the Ki at human histamine H3R (setting [5]) and on human histamine H3R (setting [6]) was 44.6 nM each time.

As to `N#Cc1ccc(Cn2cnc3c(N4CCC(N5CCCCC5)CC4)nc(Cl)nc32)cc1` [Compound 3g, 4-((6-([1,4’-Bipiperidin]-1’-yl)-2-chloro-9H-purin-9-yl)methyl)benzonitrile], the Ki at human histamine H3R (setting [5]) and on human histamine H3R (setting [6]) was 77.8 nM each time.

`Clc1nc(N2CCC(N3CCCCC3)CC2)c2ncn(Cc3c(Cl)cccc3Cl)c2n1` [Compound 3h, 6-([1,4’-Bipiperidin]-1’-yl)-2-chloro-9-(2,6-dichlorobenzyl)-9H-purine]: the 50% inhibitory concentration (IC50) at 48 h in data set [2], in data set [3] and in data set [1] was over 30 µM each time. In addition, the half-inhibitory concentration (IC50) amounted to 54.3 ± 3.54 µM with HEK-293 cell line, 32.4 ± 4.75 µM in data set [4] and 33.8 ± 4.29 µM in the data set with hepatoma HepG2 cell line. In addition, the Ki came to 5.51 nM on human histamine H3R (setting [5]) and 5.5 nM on human histamine H3R (setting [6]).

On to `Clc1nc(N2CCC(N3CCCCC3)CC2)c2ccn(Cc3c(Cl)cccc3Cl)c2n1` [III], for which the Ki on H3R is 6 nM.

Consider `Clc1nc(N2CCC(N3CCCCC3)CC2)c2ccn(Cc3ccc4ccccc4c3)c2n1` [II], for which, at H3R, the Ki was 126 nM.

Turning to `CNCCc1cnc[nH]1` [[^3H]N^α-methylhistamine, reference compound], on human histamine H3R (radioligand used at 2 nM at human H3R), the dissociation constant Kd worked out at 3.08 nM.
